Test results as given in US20030220310A1, “Epoxy-steroidal aldosterone antagonist and calcium channel blocker combination therapy for treatment of congestive heart failure” (priority 2003, published 2003).

How the values were obtained:
[1] = tested on: patients with mild to moderate hypertension; experiment: Example 19 clinical study: eplerenone versus placebo co-administered with a calcium-channel blocker; assay type: in vivo, human
Source text: This multicenter, randomized, double-blind, placebo-controlled, placebo run-in, parallel group trial involving a minimum of 120 randomized patients with hypertension (seated diastolic blood pressure [seDBP] ≧95 mmHg and <110 mmHg and seated systolic BP [seSBP] <180 mmHg while taking a CCB) will consist of a one- to two-week pretreatment screening period followed by a two- to four-week single-blind placebo run-in period and an 8-week double-blind treatment period. Eligible patients will be patients currently receiving a CCB as part of their antihypertensive medication. […] The dose will not be changed for patients with adequate BP control. […] If the dose has been increased at Week 2, the patient will be reassessed at Week 6. […] If BP is uncontrolled at Week 6 and the dose has been increased at Week 2 or Week 4, the patient must be withdrawn from the study. If symptomatic hypotension (i.e., lightheadedness, dizziness, or syncope associated with low BP) occurs at any time during the study, or if DBP is ≧110 mmHg or SBP is ≧180 mmHg at any time during the trial, the patient must be withdrawn. Patients will receive study medication for a total of 8 weeks.
Patients will return to the clinic for evaluations at Weeks 0 (baseline), 2, 4, 6, 8, and 9. Heart rate, BP, adverse events and concomitant medication will be assessed at each visit. Hematology and biochemistry evaluations and urinalysis for safety will be at Weeks 0, 8, and 9. Serum potassium levels will be determined at Weeks 0 (baseline), 2, 4, 6, 8, and 9. Plasma renin, serum aldosterone, and plasma cortisol will be determined at Weeks 0 and 8. A 12-lead electrocardiogram and physical examination will be done at screening and at Week 9.
Eligible patients will be either currently receiving a CCB alone, or receiving a CCB as part of their antihypertensive medication. […] The dose will not be changed for patients with adequate BP control. […] If the dose has been increased at Week 2, the patient will be reassessed at Week 6. The dose of study medication will not be changed for patients with adequate BP control. […] If BP is uncontrolled at Week 6 and the dose has been increased at Week 2 or Week 4, the patient must be withdrawn from the study. The dose of study medication will not be changed for patients with adequate BP control. If symptomatic hypotension (i.e., lightheadedness, dizziness, or syncope associated with low BP) occurs at any time during the study, or if DBP is ≧110 mmHg or SBP is ≧180 mmHg at any time during the study, the patient must be withdrawn. Patients will receive study medication for a total of eight weeks.
Patients will return to the clinic for evaluations at Weeks 0, 2, 4, 6, 8, and 9. Heart rate, BP, adverse events and concomitant medication will be assessed at each visit. Hematology and biochemistry evaluations and urinalysis for safety will be at Weeks 0, 8, and 9. Serum potassium levels will be determined at Weeks 0, 2, 4, 6, 8, and 9. Plasma renin, serum aldosterone, and plasma cortisol will be determined at Weeks 0 and 8. A 12-lead electrocardiogram and physical examination will be done at screening and at Week 9.
The treatment difference will be evaluated based on the mean change from baseline in seated trough cuff DBP at Week 8.

[2] = tested on: rats with ligated left anterior descending coronary artery; experiment: Assay D: Myocardial Infarction Rat Model; assay type: in vivo; conditions: combination of calcium channel blocker and epoxymexrenone versus either component alone, after six weeks
Experimental: Assay “D”: Myocardial Infarction Rat Model: Male rats are anesthetized and the heart is exteriorized following a left sided thoracotomy. The left anterior descending coronary artery is ligated with a suture. The thorax is closed and the animal recovers. Sham animals have the suture passed through without ligation. One week prior to the surgery, animals to undergo infarction are divided into separate groups and drug treatment is begun. Groups of animals are administered vehicle, calcium channel blocker alone, epoxymexrenone alone, and combinations of calcium channel blocker and epoxymexrenone, at various doses, as follow: [table] After six weeks, systolic and diastolic blood pressure, left ventricular end diastolic pressure, left ventricular dP/dt, and heart rate are evaluated. The hearts are removed, weighed, measured and fixed in formalin. Collagen content of heart sections are evaluated using computerized imaged image analysis of picrosirius stained sections.

[3] = CCB and eplerenone compared to CCB and placebo
[4] = eplerenone plus CCB versus CCB plus placebo, eight weeks, hypertensive patients

COC(=O)[C@@H]1CC2=CC(=O)CC[C@]2(C)C23O[C@@H]2C[C@@]2(C)[C@@H](CC[C@@]24CCC(=O)O4)[C@H]13 (stereo partly drawn) [eplerenone, Pregn-4-ene-7,21-dicarboxylic acid, 9,11-epoxy-17-hydroxy-3-oxo-,γ-lactone, methyl ester, (7α,11α,17β)-]
Active renin levels [1, 3]: greater increase
aldosterone levels [1, 3]: greater increase
serious adverse events ([1]; eplerenone added to CCB therapy): no serious adverse events
change in mean diastolic blood pressure [1, 4]: greater for the dual therapy group, compared to monotherapy, but this difference did not reach statistical significance
change in systolic blood pressure [1, 4]: significant reduction
cardiac performance [2]: improvements in cardiac performance
